One test relates to PXL1^LRR. Briefly: In vitro GST pull-down, PXL1^LRR. The note with it: GS4B resin, wash 10 mM Bis-Tris pH 6.0, 100 mM NaCl; SDS-PAGE, Coomassie blue; Figure 1A. It is filed as binding, Arabidopsis.
The next test relates to PXL2^LRR. Description: In vitro GST pull-down, PXL2^LRR. The format is binding, Arabidopsis. To be noted: GS4B resin, wash 10 mM Bis-Tris pH 6.0, 100 mM NaCl; SDS-PAGE, Coomassie blue; Figure 1A.
For test [1], the target named is T1, extracellular LRR domain of PXY (PXY^LRR, residues 1-647) (Arabidopsis, UniProt Q9FII5 30-647).
T1 sequence: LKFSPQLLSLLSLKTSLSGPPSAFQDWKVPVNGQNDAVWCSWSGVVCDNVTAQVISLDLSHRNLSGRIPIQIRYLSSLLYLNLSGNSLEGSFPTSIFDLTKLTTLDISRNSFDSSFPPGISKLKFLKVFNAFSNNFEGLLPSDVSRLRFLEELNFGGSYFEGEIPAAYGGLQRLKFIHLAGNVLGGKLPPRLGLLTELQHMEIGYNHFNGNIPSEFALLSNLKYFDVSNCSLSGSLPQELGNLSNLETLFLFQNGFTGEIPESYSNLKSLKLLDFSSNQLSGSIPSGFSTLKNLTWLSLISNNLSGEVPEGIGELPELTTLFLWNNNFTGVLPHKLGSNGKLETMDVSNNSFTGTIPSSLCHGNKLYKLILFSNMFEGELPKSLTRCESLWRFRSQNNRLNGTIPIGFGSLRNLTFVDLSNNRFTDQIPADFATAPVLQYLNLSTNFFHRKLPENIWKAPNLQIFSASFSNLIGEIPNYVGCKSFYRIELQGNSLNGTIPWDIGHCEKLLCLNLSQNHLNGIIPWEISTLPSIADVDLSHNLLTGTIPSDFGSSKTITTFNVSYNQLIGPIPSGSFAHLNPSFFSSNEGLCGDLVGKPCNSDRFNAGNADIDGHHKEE
Description: ITC. (Isothermal titration calorimetry measures the heat released or taken up as one component is titrated into another.)

The target of test [2] is T1, extracellular LRR domain of PXY …. Description: pull-down.

Entries after “also recorded” stand apart in the source; their conditions may differ. No end group written: not given here.

As usually defined, the Kd is the free concentration of one partner at which half of the binding sites on the other are occupied at equilibrium, for simple one-to-one binding.

For “GST-TDIF: GST tagged-TDIF protein expressed in E. coli strain BL21 (DE3) (HEVPSGPNPISN; also: GST tag, end not given here)”, in the test with PXL1^LRR, the “interaction with PXL1^LRR in pull-down” value was “can pull-down; also recorded: much lower affinities”. In addition, the “interaction with PXL2^LRR in pull-down” value in the test with PXL2^LRR is “can pull-down; also recorded: much lower affinities”.
In test [1], REVPSGPNPISN [synthetic mutant peptide TDIF^H1R] yielded a Kd of about 0.068 µM.
With HEVPSGPNPISN [recombinant GST-TDIF], the binding result in test [2] is “binds”.

The values are drawn from publication PMC4856767 (Cell Research, 2016).
